Experimental findings from ChEMBL document CHEMBL4219245, “Development of piperazine-based hydroxamic acid inhibitors against falcilysin, an essential malarial protease” (Bioorg Med Chem Lett, 2018) are described below.

Some results are limits rather than exact numbers.

Test [1] deals with T1, Falcilysin (Plasmodium falciparum (isolate 3D7), UniProt Q76NL8).
T1 sequence (Q76NL8 whole entry): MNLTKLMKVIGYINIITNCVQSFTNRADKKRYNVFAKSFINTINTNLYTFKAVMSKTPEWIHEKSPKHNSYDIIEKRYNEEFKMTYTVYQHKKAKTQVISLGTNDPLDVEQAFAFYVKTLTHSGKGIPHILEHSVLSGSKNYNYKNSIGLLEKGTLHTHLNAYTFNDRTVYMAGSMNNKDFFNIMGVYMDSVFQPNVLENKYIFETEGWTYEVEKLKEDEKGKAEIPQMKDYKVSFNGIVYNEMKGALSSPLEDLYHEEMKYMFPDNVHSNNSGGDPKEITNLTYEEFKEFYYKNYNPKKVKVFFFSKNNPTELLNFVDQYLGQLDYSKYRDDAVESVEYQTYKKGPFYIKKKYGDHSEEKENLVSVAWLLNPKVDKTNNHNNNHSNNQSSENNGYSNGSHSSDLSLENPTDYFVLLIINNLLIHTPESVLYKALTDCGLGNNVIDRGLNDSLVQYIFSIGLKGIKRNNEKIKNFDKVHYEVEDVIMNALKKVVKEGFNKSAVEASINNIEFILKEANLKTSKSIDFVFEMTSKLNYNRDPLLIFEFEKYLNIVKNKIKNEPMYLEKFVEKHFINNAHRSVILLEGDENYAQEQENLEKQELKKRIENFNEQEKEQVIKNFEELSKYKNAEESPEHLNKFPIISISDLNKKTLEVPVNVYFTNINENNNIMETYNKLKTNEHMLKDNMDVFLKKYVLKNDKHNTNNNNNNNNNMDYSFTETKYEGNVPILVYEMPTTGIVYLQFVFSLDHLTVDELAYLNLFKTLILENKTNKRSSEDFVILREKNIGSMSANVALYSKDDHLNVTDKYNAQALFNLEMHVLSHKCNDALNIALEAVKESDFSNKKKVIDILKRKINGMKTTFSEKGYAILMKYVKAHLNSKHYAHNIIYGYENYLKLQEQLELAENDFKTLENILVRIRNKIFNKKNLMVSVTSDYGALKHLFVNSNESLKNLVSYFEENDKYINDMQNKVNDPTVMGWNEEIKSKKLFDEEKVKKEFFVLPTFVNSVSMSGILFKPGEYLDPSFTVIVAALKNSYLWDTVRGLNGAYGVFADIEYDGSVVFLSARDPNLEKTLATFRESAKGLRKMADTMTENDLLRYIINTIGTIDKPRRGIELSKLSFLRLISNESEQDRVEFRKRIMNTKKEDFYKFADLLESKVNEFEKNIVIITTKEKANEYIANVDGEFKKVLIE
In words: Inhibition of Plasmodium falciparum 3D7 FLN (55 to 1193 residues) expressed in Escherichia coli BL21 using Dabcyl-HKRHSFRMRG-EDANS as substrate preincubated for 5 mins followed by substrate addition measured for 10 mins by fluorescence assay.

For test [2], the system named is Plasmodium falciparum. Description: Parasiticidal activity against ring stage Plasmodium falciparum 3D7 infected in human RBC after 70 to 80 hrs by acridine orange staining-based assay. The class given is functional, organism-based. As to conditions: 3D7, Erythrocyte.

By IC50 is commonly meant the midpoint of a concentration-inhibition curve. On to `COc1ccc(S(=O)(=O)N2CCN(C(=O)c3ccccc3Br)CC2C(=O)NO)cc1` (configuration not stated), for which the IC50 is 8 µM in test [1] and > 10 µM in test [2].

In the case of `COc1ccc(S(=O)(=O)N2CCN(C(=O)c3ccccc3)CC2C(=O)NO)cc1` (configuration not stated), the IC50 in test [1] is > 50 µM; in test [2], > 10 µM.

`CCCCN1CCN(S(=O)(=O)c2ccccc2)C(C(=O)NO)C1` (configuration not stated): the results for the IC50 in test [1] and in test [2] were > 50 µM and > 10 µM, respectively.

As to `O=C(NO)C1CN(CCCO)CCN1S(=O)(=O)c1ccccc1` (configuration not stated), the results for the IC50 in test [1] and in test [2] were > 50 µM and > 10 µM, respectively.

`O=C(NO)C1CN(C(=O)c2cccc(F)c2)CCN1S(=O)(=O)c1ccc(Br)cc1` (configuration not stated): the IC50 in test [1] is 31 µM; in test [2], > 10 µM.

On to `O=C(NO)C1CN(C(=O)c2ccc(F)cc2)CCN1S(=O)(=O)c1ccc(Br)cc1` (configuration not stated), for which the IC50 was 16 µM in test [1] and > 10 µM in test [2].

For `O=C(NO)C1CN(C(=O)c2ccc(-c3ccccc3)cc2)CCN1S(=O)(=O)c1ccccc1` (configuration not stated), the half-maximal inhibitory concentration (IC50) in test [1] was 8 µM; in test [2] it was > 10 µM.

With `COc1ccc(S(=O)(=O)N2CCN(C(=O)c3ccc(Br)cc3)CC2C(=O)NO)cc1` (configuration not stated), the IC50 in test [1] is 14 µM; in test [2] it was > 10 µM.

For `O=C(NO)C1CN(C(=O)c2ccc(Cl)c(Cl)c2)CCN1S(=O)(=O)c1ccccc1` (configuration not stated), the IC50 in test [1] is 5 µM; in test [2], > 10 µM.

For the compound `O=C(NO)C1CN(C(=O)c2cccc(F)c2)CCN1S(=O)(=O)c1ccccc1` (configuration not stated), the results for the IC50 in test [1] and in test [2] were > 50 µM and > 10 µM, respectively.

As for `O=C(NO)C1CN(C(=O)c2ccccc2Br)CCN1S(=O)(=O)c1ccccc1` (configuration not stated), the IC50 was 7 µM in test [1] and > 10 µM in test [2].

As for `COc1ccc(S(=O)(=O)N2CCN(S(=O)(=O)c3ccccc3)CC2C(=O)NO)cc1` (configuration not stated), the IC50 in test [1] was > 50 µM; in test [2], > 10 µM.

Turning to `O=C(NO)C1CN(C(=O)c2ccccc2)CCN1S(=O)(=O)c1ccc(Br)cc1` (configuration not stated), the IC50 in test [1] was 35 µM; in test [2], > 10 µM.

In the case of `O=C(NO)C1CN(C(=O)c2ccc(-c3ccccc3)cc2)CCN1S(=O)(=O)c1ccc(Br)cc1` (configuration not stated), the IC50 in test [1] and in test [2] was 1.4 µM in each case.

As for `CCC(=O)N1CCN(S(=O)(=O)c2ccc(Br)cc2)C(C(=O)NO)C1` (configuration not stated), the IC50 in test [1] is > 50 µM; in test [2] it was > 10 µM.

Consider `O=C(NO)C1CN(C(=O)c2ccc(F)cc2)CCN1S(=O)(=O)c1ccccc1` (configuration not stated), for which the values for the IC50 in test [1] and in test [2] were > 50 µM and > 10 µM, respectively.

As for `COc1ccc(S(=O)(=O)N2CCN(C(=O)c3cccc(Br)c3)CC2C(=O)NO)cc1` (configuration not stated), the IC50 was 10 µM in test [1] and > 10 µM in test [2].

For `COc1ccc(S(=O)(=O)N2CCN(C(=O)c3ccc(-c4ccccc4)cc3)CC2C(=O)NO)cc1` (configuration not stated), the IC50 in test [1] was 10 µM; in test [2], 5 µM.

Turning to `O=C(NO)C1CN(C(=O)c2ccc(Br)cc2)CCN1S(=O)(=O)c1ccccc1` (configuration not stated), the results for the IC50 in test [1] and in test [2] were 13 µM and > 10 µM, respectively.

As for `O=C(NO)C1CN(C(=O)c2ccccc2)CCN1S(=O)(=O)c1ccccc1` (configuration not stated), the IC50 was 40 µM in test [1] and > 10 µM in test [2].

On to `COc1ccc(S(=O)(=O)N2CCN(C(=O)c3ccc(Cl)c(Cl)c3)CC2C(=O)NO)cc1` (configuration not stated), for which the values for the IC50 in test [1] and in test [2] were 6 µM and > 10 µM, respectively.
